Test results from patent publication US20100010002A1, “ANTICANCER USE OF CAFFEIC ACID AND ITS DERIVATIVES” (Piramal Life Sciences Limited, priority 2006, published 2010).
Like-named read-outs stand apart in the source and are kept apart here.

What was measured:
Ba/F3 Bcr-Abl/WT = target: T1, Ba/F3 Bcr-Abl/WT (Homo sapiens, UniProt P00519); test: CCK-8 assay, Ba/F3 Bcr-Abl/WT; assay type: cell-based; conditions: CCK-8, 72 h, imatinib mesylate sensitive; read-out: Inhibitory concentration (IC50), Ba/F3 Bcr-Abl/WT
T1 construct: fused on or other part: P11274 (Breakpoint cluster region protein)
From the text: (§1) The cell lines described in Table 3 were used to test the antiproliferative activity of test compounds.
(§2) Cell Counting Kit-8 (CCK-8) allows very convenient assay by utilizing Dojindo's highly water-soluble tetrazolium salt. CCK-8, being nonradioactive, allows sensitive colorimetric assay for the determination of number of viable cells in cell proliferation and cytotoxicity assays. The amount of the formazan dye generated by dehydrogenases in cells is directly proportional to the number of living cells. Thus, the CCK-8 assay can also be substituted for the H^3-Thymidine incorporation assay.
(§3) Plates were further incubated at 37° C., 5% CO2 incubator for 72 h. 10 μl of the CCK-8 solution was added to each well and plate was incubated for 1-4 h in the incubator. Measured the absorbance at 450 nm using a microplate reader.
(§4) A. The percent inhibition and IC50 were calculated in comparison with control values.

Ba/F3 Bcr-Abl/E255K = target: T2, Ba/F3 Bcr-Abl/E255K (Homo sapiens, UniProt P00519, E255K, cells depend on it); test: CCK-8 assay, Ba/F3 Bcr-Abl/E255K; assay type: cell-based
T2 construct: fused on or other part: P11274 (Breakpoint cluster region protein)

Ba/F3 Bcr-Abl/T315I = Ba/F3 Bcr-Abl/T315I (Homo sapiens, UniProt P00519, T315I, cells depend on it)
From the text: as §1, §2, §3, §4

Ba/F3 Bcr-Abl/Y253H = target: T3, Ba/F3 Bcr-Abl/Y253H (Homo sapiens, UniProt P00519, Y253H, cells depend on it); test: CCK-8 assay, Ba/F3 Bcr-Abl/Y253H; assay type: cell-based
T3 construct: fused on or other part: P11274 (Breakpoint cluster region protein)

Ba/F3 Bcr-Abl/F317L = target: T4, Ba/F3 Bcr-Abl/F317L (Homo sapiens, UniProt P00519, F317L, cells depend on it); test: CCK-8 assay, Ba/F3 Bcr-Abl/F317L; assay type: cell-based
T4 construct: fused on or other part: P11274 (Breakpoint cluster region protein)

Ba/F3 Bcr-Abl/F359V = target: T5, Ba/F3 Bcr-Abl/F359V (Homo sapiens, UniProt P00519, F359V, cells depend on it); test: CCK-8 assay, Ba/F3 Bcr-Abl/F359V; assay type: cell-based
T5 construct: fused on or other part: P11274 (Breakpoint cluster region protein)

Ba/F3 Bcr-Abl/E255V = target: T6, Ba/F3 Bcr-Abl/E255V (Homo sapiens, UniProt P00519, E255V, cells depend on it); test: CCK-8 assay, Ba/F3 Bcr-Abl/E255V; assay type: cell-based
T6 construct: fused on or other part: P11274 (Breakpoint cluster region protein)

K562 = test: CCK-8 cell proliferation and cytotoxicity assay, K562; assay type: cell-based, Human; conditions: read-out: Inhibitory concentration (IC50), K562
Ba/F3 Bcr-Abl/H396R = target: T7, Ba/F3 Bcr-Abl/H396R (Homo sapiens, UniProt P00519, H396R, cells depend on it); test: CCK-8 assay, Ba/F3 Bcr-Abl/H396R; assay type: cell-based
T7 construct: fused on or other part: P11274 (Breakpoint cluster region protein)

Ba/F3 Bcr-Abl/M244V = target: T8, Ba/F3 Bcr-Abl/M244V (Homo sapiens, UniProt P00519, M244V, cells depend on it); test: CCK-8 assay, Ba/F3 Bcr-Abl/M244V; assay type: cell-based
T8 construct: fused on or other part: P11274 (Breakpoint cluster region protein)

Ba/F3 Bcr-Abl/H396P = target: T9, Ba/F3 Bcr-Abl/H396P (Homo sapiens, UniProt P00519, H396P, cells depend on it); test: CCK-8 assay, Ba/F3 Bcr-Abl/H396P; assay type: cell-based
T9 construct: fused on or other part: P11274 (Breakpoint cluster region protein)

Ba/F3 Bcr-Abl/M351T = target: T10, Ba/F3 Bcr-Abl/M351T (Homo sapiens, UniProt P00519, M351T, cells depend on it); test: CCK-8 assay, Ba/F3 Bcr-Abl/M351T; assay type: cell-based
T10 construct: fused on or other part: P11274 (Breakpoint cluster region protein)

Ba/F3 Bcr-Abl/Y253F = target: T11, Ba/F3 Bcr-Abl/Y253F (Homo sapiens, UniProt P00519, Y253F, cells depend on it); test: CCK-8 assay, Ba/F3 Bcr-Abl/Y253F; assay type: cell-based
T11 construct: fused on or other part: P11274 (Breakpoint cluster region protein)

Ba/F3 Bcr-Abl/Q252H = target: T12, Ba/F3 Bcr-Abl/Q252H (Homo sapiens, UniProt P00519, Q252H, cells depend on it); test: CCK-8 assay, Ba/F3 Bcr-Abl/Q252H; assay type: cell-based
T12 construct: fused on or other part: P11274 (Breakpoint cluster region protein)

[1] = mouse, ba/f3 bcr-abl/t315i, 72 h
[2] = read-out: Inhibitory concentration (IC50), Ba/F3 Bcr-Abl/T315I, CCK-8, 72 h, imatinib mesylate resistant, Table 4
[3] = CCK-8, 72 h, imatinib mesylate sensitive K562

SMILES	GI50 (Ba/F3 Bcr-Abl/WT) [µM]	GI50 (Ba/F3 Bcr-Abl/E255K; mouse, 72 h) [nM]	GI50 (Ba/F3 Bcr-Abl/T315I; [1]) [nM]	GI50 (Ba/F3 Bcr-Abl/T315I; [2]) [nM]	GI50 (Ba/F3 Bcr-Abl/Y253H; mouse, 72 h) [µM]	GI50 (Ba/F3 Bcr-Abl/F317L; mouse, 72 h) [nM]	GI50 (Ba/F3 Bcr-Abl/F359V; mouse, 72 h) [nM]	GI50 (Ba/F3 Bcr-Abl/E255V; mouse, 72 h) [µM]	IC50 (K562; Homo sapiens, K562, 72 h) [µM]	GI50 (Ba/F3 Bcr-Abl/H396R; mouse, 72 h) [nM]	GI50 (Ba/F3 Bcr-Abl/M244V; mouse, 72 h) [µM]	GI50 (Ba/F3 Bcr-Abl/H396P; mouse, 72 h) [µM]	GI50 (Ba/F3 Bcr-Abl/M351T; mouse, 72 h) [nM]	GI50 (Ba/F3 Bcr-Abl/Y253F; mouse, 72 h) [nM]	GI50 (Ba/F3 Bcr-Abl/Q252H; mouse, 72 h) [nM]	IC50 (K562; [3]) [µM]	further results
CCCOC(=O)C=Cc1ccc(O)c(O)c1 [Compound 5, 3-(3,4-Dihydroxy-phenyl)-acrylic acid n-propyl ester]	2.4 ± 0.8	2900	600	700 ± 100	3.3	1600	2500	3.4	13.5 ± 2.1	1100	3	5.6	2200	1700	1700	–	–
CCN1CCN(C(=O)C=Cc2ccc(O)c(O)c2)CC1 [Compound 9, 3-(3,4-Dihydroxy-phenyl)-1-(4-ethyl-piperazin-1-yl)-propenone]	40.6 ± 16.4	–	–	43100 ± 27900	–	–	–	–	–	–	–	–	–	–	–	59.5	–
CC(C)NC(=O)/C=C/c1ccc(O)c(O)c1 [Compound 18, (E)-3-(3,4-dihydroxy-phenyl)-N-isopropyl-acrylamide]	19.4 ± 8.8	–	–	9500 ± 4100	–	–	–	–	32.1	–	–	–	–	–	–	–	–
CN1CCC(N2CCN(C(=O)/C=C/c3ccc(O)c(O)c3)CC2)CC1 [Compound 12, (E)-3-(3,4-dihydroxy-phenyl)-1-[4-(1-methyl-piperidin-4-yl)piperazin-1-yl]-propenone]	> 30	–	–	> 30000	–	–	–	–	–	–	–	–	–	–	–	> 30	–
O=C(C=Cc1ccc(O)c(O)c1)N1CCN(Cc2ccccc2)CC1 [Compound 10, 1-(4-Benzyl-piperazin-1-yl) 3-(3,4-dihydroxy-phenyl)-propenone]	2.8 ± 0.4	–	–	2500 ± 1500	–	–	–	–	–	–	–	–	–	–	–	18	GI50 (Ba/F3 Bcr-Abl/E255K): 2400 nM; GI50 (Ba/F3 Bcr-Abl/T315I; ba/f3 bcr-abl/t315i): 3100 nM; GI50 (Ba/F3 Bcr-Abl/Y253H): 2.5 µM; GI50 (Ba/F3 Bcr-Abl/F317L): 1200 nM; GI50 (Ba/F3 Bcr-Abl/F359V): 2600 nM; GI50 (Ba/F3 Bcr-Abl/E255V): 2.1 µM; GI50 (Ba/F3 Bcr-Abl/H396R): 1000 nM; GI50 (Ba/F3 Bcr-Abl/M244V): 1.3 µM; GI50 (Ba/F3 Bcr-Abl/H396P): 3.7 µM; GI50 (Ba/F3 Bcr-Abl/M351T): 2200 nM; GI50 (Ba/F3 Bcr-Abl/Y253F): 1100 nM; GI50 (Ba/F3 Bcr-Abl/Q252H): 1500 nM
O=C(C=Cc1ccc(O)c(O)c1)N1CCC(Cc2ccccc2)CC1 [Compound 19, 1-(4-Benzyl-piperidin-1-yl)-3-(3,4-dihydroxy-phenyl)-propenone]	4.2 ± 1.3	–	–	2700 ± 500	–	–	–	–	–	–	–	–	–	–	–	5.7	GI50 (Ba/F3 Bcr-Abl/E255K): 1500 nM; GI50 (Ba/F3 Bcr-Abl/T315I; ba/f3 bcr-abl/t315i): 2100 nM; GI50 (Ba/F3 Bcr-Abl/Y253H): 1 µM; GI50 (Ba/F3 Bcr-Abl/F317L): 1100 nM; GI50 (Ba/F3 Bcr-Abl/F359V): 2400 nM; GI50 (Ba/F3 Bcr-Abl/E255V): 0.8 µM; GI50 (Ba/F3 Bcr-Abl/H396R): 1400 nM; GI50 (Ba/F3 Bcr-Abl/M244V): 1 µM; GI50 (Ba/F3 Bcr-Abl/H396P): 2.8 µM; GI50 (Ba/F3 Bcr-Abl/M351T): 2100 nM; GI50 (Ba/F3 Bcr-Abl/Y253F): 1000 nM; GI50 (Ba/F3 Bcr-Abl/Q252H): 1100 nM
O=C(O)/C=C/c1ccc(O)c(O)c1 [Compound 1, 3-(3,4-Dihydroxy-phenyl)-acrylic acid [caffeic acid]]	> 100	> 100000	> 100000	> 100000	> 100	> 100000	> 100000	> 100	> 100	> 100000	> 100	> 100	> 100000	> 100000	> 100000	–	–
CCOC(=O)C=Cc1ccc(O)c(O)c1 [Compound 3, 3-(3,4-Dihydroxy-phenyl)-acrylic acid ethyl ester]	3.3 ± 0.9	6700	1100	2300 ± 900	13.2	12300	13400	10.2	11.8 ± 8.8	8600	15.2	16.6	8700	6400	8400	–	–
CC(C)OC(=O)C=Cc1ccc(O)c(O)c1 [Compound 6, 3-(3,4-Dihydroxy-phenyl)-acrylic acid i-propyl ester]	2.3 ± 1.1	5100	2000	1700 ± 1100	13.3	11300	14600	9.9	16.5 ± 2.1	7000	9.8	10.8	5100	5200	5900	–	–
O=C(/C=C/c1ccc(O)c(O)c1)N1CCN(c2ccccc2)CC1 [Compound 13, (E)-3-(3,4-dihydroxy-phenyl)-1-(4-phenylpiperazin-1-yl)-propenone]	27 ± 8.5	–	–	26600 ± 6500	–	–	–	–	–	–	–	–	–	–	–	33.5	–
